The record followed here is article doi:10.1101/2025.03.14.643404, “A Bivalent Molecular Glue Linking Lysine Acetyltransferases to Oncogene-induced Cell Death” (bioRxiv, 2025).

The subject of test [1] is p300^BD-BCL6^BTB. The test can be described thus: TR-FRET ternary assay p300BD-BCL6BTB. In kind it is binding, human. Here is the method:
10 μL reactions containing 10 nM 6x-His- p300^BD or 6x-His-CBP^BD, 200 nM BiotinylatedAvi-BCL6^BTB, 20 nM streptavidin-FITC (SA1001, Thermo), and 1:400 anti-6x-His-terbium (PerkinElmer 61HI2TLF) in buffer containing 20 mM HEPES pH 7.5, 150 mM NaCl, 0.1% BSA, 0.1% NP-40, and 1 mM TCEP were plated in low-volume 384 well plates. Drugs were digitally dispensed (Tecan D300e) into protein-containing wells, and the plate was allowed to incubate in the dark for 1 hour at room temperature. Emission at 490 nm (terbium) and 520 nm (FITC) was measured on a PHERAstar FS plate reader (BMG Labtech) upon excitation with 337 nm. The ratio of signal at 520 nm to 490 nm was calculated and normalized to DMSO-treated protein.
(In TR-FRET formats the signal depends on donor and acceptor labels being close together.)

Test [2] concerns SUDHL5. The test can be described thus: Cell viability, 7 days compound treatment (Cell Titer-Glo), SUDHL5. The class given is cell-based. As to conditions: Homo sapiens, SU-DHL-5, 168 h; SUDHL5, 7 days; read-out: IC50 of antiproliferation. Here is the method: Fifteen thousand cells were seeded in 100 μl of media per well of a U-bottom 96-well plate and treated with digitally dispensed drugs (Tecan D300e) for the indicated times and doses. After 96 hours, plates were centrifuged for 750 rpm for 3 minutes, and old media was exchanged for 100 μl of fresh media. Drug treatment was then repeated at the indicated doses. 72 hours following media change, cells were transferred to 96 well flat-bottom opaque plates. Viability was measured by adding 25 μL Cell Titer-Glo reagent (Promega G7570) to each well and luminescence was measured (BMG Labtech Pherastar FS). The background luminescence was subtracted, and the signal was normalized to DMSO-treated cells. IC50 measurements on cell lines were calculated using at least three biological replicates by separate cell passages. Fit of dose–response curves to data and statistical analysis was performed using GraphPad PRISM using the four-parameter log(inhibitor) vs response function.
(In ATP-based viability assays light output follows the ATP content of the culture.)

For test [3], the system named is H3K27ac. The test can be described thus: ChIP-seq for H3K27ac in SUDHL5. The class given is cell-based, human. As to conditions: SUDHL5, 1 nM, 1 hour. As for the experimental part:
25–30 million cells were treated with TCIP3 or DMSO for indicated timepoints. Cells were washed in PBS containing TCIP3 or DMSO and crosslinked for 11 min in CiA Fix Buffer (50 mM HEPES pH 8.0, 1 mM EDTA, 0.5 mM EGTA, 100 mM NaCl) with addition of formaldehyde to a final concentration of 1%. The crosslinking reaction was quenched by glycine added at 0.125 M final concentration. Crosslinked cells were centrifuged at 1,000 × g for 5 min. […] Library size distributions were confirmed using an Agilent Bioanalyzer and High Sensitivity DNA reagents (Agilent 5067) and concentrations determined by qPCR. […]
The data quality was checked using fastq (https://www.bioinformatics.babraham.ac.uk/projects/fastqc/). The raw reads were trimmed from adapters with cutadapt (parameters: -a […] -A […]) and raw reads were aligned to hg38 human genome assembly using bowtie2 (parameters: --local --maxins 1000). Low quality reads, duplicated reads and reads with multiple alignments were removed using samtools[120] and Picard (https://broadinstitute.github.io/picard/). macs2[121] was used to map position of peaks with FDR cutoff of 0.05. […] All browser tracks and metaprofiles shown were calculated with sequence-depth-normalized, replicate-merged (bigWigMerge[125]) and, for ChIP-seq, input-subtracted data (deeptools bigWigCompare). […]

Test [4] has as its target p300^WT (Homo sapiens, UniProt Q09472). The test can be described thus: TR-FRET binary displacement assay, p300 WT bromodomain. The class given is binding. The following applies: α = Kd binary/Kd ternary. As for the experimental part: Drugs were digitally dispensed (Tecan D300e) into protein-containing wells, and the plate was allowed to incubate in the dark for 1 hour at room temperature. Emission at 490 nm (terbium) and 520 nm (FITC) was measured on a PHERAstar FS plate reader (BMG Labtech) upon excitation with 337 nm. The ratio of signal at 520 nm to 490 nm was calculated and normalized to DMSO-treated protein.

The structures appear in SMILES notation.

Sequence of p300^WT (Q09472 1049-1156 limits assumed): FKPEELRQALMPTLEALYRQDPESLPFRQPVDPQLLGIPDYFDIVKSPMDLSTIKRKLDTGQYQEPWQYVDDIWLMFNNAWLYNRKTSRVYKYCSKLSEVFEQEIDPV

Consider `CNC(=O)COc1cc2cc(Nc3nc(N4CCC(C(=O)N5CCN(CCC(=O)N6CCC(n7nc(N8CCCc9cc(-c%10cnn(C)c%10)c(C(F)F)cc98)c8c7CCN(C(=O)NC)C8)CC6)CC5)CC4)ncc3Cl)cc(OC)c2n(C)c1=O` [TCIP3], for which, in test [1], the “TR-FRET signal AUC, times higher than NEG1” value turned out to be 23 times and the “TR-FRET signal AUC, times higher than NEG2” value is 18 times. Further, the IC50 in test [2] was found to be 1.2 nM. Also, in test [3], the H3K27ac peaks gained came out at 533 and the H3K27ac peaks lost is 5,216. In addition, the “cooperativity α” value in test [4] came out at 4.2.
